Literature values in patent US6417349B1, “Water-soluble extract of asiaticoside and madecassoside from Centella asiatica and isolating method thereof” (priority 1997, dated 2002).

conditions: prior-art components

Solubility in water, water-insoluble:
C[C@H]1[C@H](C)CC[C@]2(C(=O)O)CC[C@]3(C)C(=CC[C@@H]4[C@@]5(C)C[C@@H](O)[C@H](O)[C@@](C)(CO)[C@@H]5CC[C@]43C)[C@H]12 [asiatic acid]
CC1CCC2(C(=O)O)CCC3(C)C(=CCC4C5(C)CC(O)C(O)C(C)(C)C5C(O)CC43C)C2C1C (stereo not drawn) [madasiatic acid]
C[C@H]1[C@H](C)CC[C@]2(C(=O)O)CC[C@]3(C)C(=CC[C@@H]4[C@@]5(C)C[C@@H](O)[C@H](O)[C@@](C)(CO)[C@@H]5[C@H](O)C[C@]43C)[C@H]12 [madecassic acid]
